Measurements as given in PubChem BioAssay (NCI).
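Grown in 96-well plates, cells were treated for 48 hours with each compound at five concentrations. Insufficient inhibition: endpoint recorded as highest concentration tested. TGI denotes the concentration required for complete inhibition of growth.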

What was measured:
Experiment in all cases: DTP human tumour cell line panel, 48 h
786-0 renal = system: 786-0 renal
A498 renal = system: A498 renal
A549 NSCLC = system: A549 NSCLC
ACHN renal = system: ACHN renal
BT-549 breast = system: BT-549 breast
CAKI-1 renal = system: CAKI-1 renal
CCRF-CEM leukemia = system: CCRF-CEM leukemia
COLO 205 colon = system: COLO 205 colon
DU-145 prostate = system: DU-145 prostate
EKVX NSCLC = system: EKVX NSCLC
HCC-2998 colon = system: HCC-2998 colon
HCT-116 colon = system: HCT-116 colon
HCT-15 colon = system: HCT-15 colon
HL-60(TB) leukemia = system: HL-60(TB) leukemia
HOP-62 NSCLC = system: HOP-62 NSCLC
HOP-92 NSCLC = system: HOP-92 NSCLC
HS 578T breast = system: HS 578T breast
HT29 colon = system: HT29 colon
IGROV1 ovarian = system: IGROV1 ovarian
K-562 leukemia = system: K-562 leukemia
KM12 colon = system: KM12 colon
LOX IMVI melanoma = system: LOX IMVI melanoma
M14 melanoma = system: M14 melanoma
MALME-3M melanoma = system: MALME-3M melanoma
MCF7 breast = system: MCF7 breast
MDA-MB-231 breast = system: MDA-MB-231 breast
MDA-MB-435 = system: MDA-MB-435
MDA-N = system: MDA-N
MOLT-4 leukemia = system: MOLT-4 leukemia
NCI-H226 lung = system: NCI-H226 lung
NCI-H23 lung = system: NCI-H23 lung
NCI-H460 lung = system: NCI-H460 lung
NCI-H522 lung = system: NCI-H522 lung
NCI/ADR-RES ovarian = system: NCI/ADR-RES ovarian
OVCAR-3 ovarian = system: OVCAR-3 ovarian
OVCAR-4 ovarian = system: OVCAR-4 ovarian
OVCAR-5 ovarian = system: OVCAR-5 ovarian
OVCAR-8 ovarian = system: OVCAR-8 ovarian
PC-3 prostate = system: PC-3 prostate
RPMI-8226 leukemia = system: RPMI-8226 leukemia
RXF 393 renal = system: RXF 393 renal
SF-268 CNS = system: SF-268 CNS
SF-295 CNS = system: SF-295 CNS
SF-539 CNS = system: SF-539 CNS
SK-MEL-2 melanoma = system: SK-MEL-2 melanoma
SK-MEL-28 melanoma = system: SK-MEL-28 melanoma
SK-MEL-5 melanoma = system: SK-MEL-5 melanoma
SK-OV-3 ovarian = system: SK-OV-3 ovarian
SN12C renal = system: SN12C renal
SNB-19 CNS = system: SNB-19 CNS
SNB-75 CNS = system: SNB-75 CNS
SR leukemia = system: SR leukemia
SW-620 colon = system: SW-620 colon
T-47D breast = system: T-47D breast
TK-10 renal = system: TK-10 renal
U251 CNS = system: U251 CNS
UACC-257 melanoma = system: UACC-257 melanoma
UACC-62 melanoma = system: UACC-62 melanoma
UO-31 renal = system: UO-31 renal

Structure (SMILES): CC(C)NC(=O)OCc1c(COC(=O)NC(C)C)c(-c2cc[n+](COC(=O)Cc3ccccc3)cc2)n2c1CCC2
- TGI (786-0 renal): > 100 µM
- TGI (A498 renal): > 100 µM
- TGI (A549 NSCLC): > 100 µM
- TGI (ACHN renal): > 100 µM
- TGI (BT-549 breast): > 100 µM
- TGI (CAKI-1 renal): > 100 µM
- TGI (CCRF-CEM leukemia): > 100 µM
- TGI (COLO 205 colon): > 100 µM
- TGI (DU-145 prostate): > 100 µM
- TGI (EKVX NSCLC): > 100 µM
- TGI (HCC-2998 colon): > 100 µM
- TGI (HCT-116 colon): > 100 µM
- TGI (HCT-15 colon): > 100 µM
- TGI (HL-60(TB) leukemia): > 100 µM
- TGI (HOP-62 NSCLC): > 100 µM
- TGI (HOP-92 NSCLC): > 100 µM
- TGI (HS 578T breast): > 100 µM
- TGI (HT29 colon): > 100 µM
- TGI (IGROV1 ovarian): > 100 µM
- TGI (K-562 leukemia): > 100 µM
- TGI (KM12 colon): > 100 µM
- TGI (LOX IMVI melanoma): > 100 µM
- TGI (M14 melanoma): > 100 µM
- TGI (MALME-3M melanoma): > 100 µM
- TGI (MCF7 breast): > 100 µM
- TGI (MDA-MB-231 breast): > 100 µM
- TGI (MDA-MB-435): > 100 µM
- TGI (MDA-N): > 100 µM
- TGI (MOLT-4 leukemia): > 100 µM
- TGI (NCI-H226 lung): > 100 µM
- TGI (NCI-H23 lung): > 100 µM
- TGI (NCI-H460 lung): > 100 µM
- TGI (NCI-H522 lung): > 100 µM
- TGI (NCI/ADR-RES ovarian): > 100 µM
- TGI (OVCAR-3 ovarian): > 100 µM
- TGI (OVCAR-4 ovarian): > 100 µM
- TGI (OVCAR-5 ovarian): > 100 µM
- TGI (OVCAR-8 ovarian): > 100 µM
- TGI (PC-3 prostate): > 100 µM
- TGI (RPMI-8226 leukemia): > 100 µM
- TGI (RXF 393 renal): > 100 µM
- TGI (SF-268 CNS): > 100 µM
- TGI (SF-295 CNS): > 100 µM
- TGI (SF-539 CNS): > 100 µM
- TGI (SK-MEL-2 melanoma): > 100 µM
- TGI (SK-MEL-28 melanoma): > 100 µM
- TGI (SK-MEL-5 melanoma): > 100 µM
- TGI (SK-OV-3 ovarian): > 100 µM
- TGI (SN12C renal): > 100 µM
- TGI (SNB-19 CNS): > 100 µM
- TGI (SNB-75 CNS): > 100 µM
- TGI (SR leukemia): > 100 µM
- TGI (SW-620 colon): > 100 µM
- TGI (T-47D breast): > 100 µM
- TGI (TK-10 renal): > 100 µM
- TGI (U251 CNS): > 100 µM
- TGI (UACC-257 melanoma): > 100 µM
- TGI (UACC-62 melanoma): > 100 µM
- TGI (UO-31 renal): > 100 µM

Structure (SMILES): CC(NNC(=S)N1CCCC1)c1cccnn1 (stereo not given)
- TGI (786-0 renal): > 100 µM
- TGI (A498 renal): 97.5 µM
- TGI (ACHN renal): 4.68 µM
- TGI (BT-549 breast): > 56.1 µM
- TGI (CAKI-1 renal): > 100 µM
- TGI (CCRF-CEM leukemia): > 100 µM
- TGI (COLO 205 colon): > 100 µM
- TGI (DU-145 prostate): > 70 µM
- TGI (HCC-2998 colon): > 100 µM
- TGI (HCT-116 colon): > 44 µM
- TGI (HCT-15 colon): > 100 µM
- TGI (HL-60(TB) leukemia): > 100 µM
- TGI (HOP-62 NSCLC): > 31 µM
- TGI (HS 578T breast): > 100 µM
- TGI (HT29 colon): > 100 µM
- TGI (IGROV1 ovarian): > 59.3 µM
- TGI (K-562 leukemia): > 100 µM
- TGI (KM12 colon): > 100 µM
- TGI (LOX IMVI melanoma): > 100 µM
- TGI (MALME-3M melanoma): > 100 µM
- TGI (MCF7 breast): 5.33 µM
- TGI (MDA-MB-231 breast): > 100 µM
- TGI (MDA-MB-435): > 100 µM
- TGI (MDA-N): > 100 µM
- TGI (MOLT-4 leukemia): > 100 µM
- TGI (NCI-H226 lung): > 26.5 µM
- TGI (NCI-H23 lung): > 100 µM
- TGI (NCI-H460 lung): > 81.5 µM
- TGI (NCI/ADR-RES ovarian): > 62.9 µM
- TGI (OVCAR-3 ovarian): > 100 µM
- TGI (OVCAR-4 ovarian): > 76.9 µM
- TGI (OVCAR-5 ovarian): 8.71 µM
- TGI (PC-3 prostate): > 100 µM
- TGI (RPMI-8226 leukemia): > 100 µM
- TGI (RXF 393 renal): 0.671 µM
- TGI (SF-295 CNS): > 28.2 µM
- TGI (SF-539 CNS): 4.36 µM
- TGI (SK-MEL-2 melanoma): > 100 µM
- TGI (SK-MEL-28 melanoma): > 31.6 µM
- TGI (SK-MEL-5 melanoma): 5.39 µM
- TGI (SK-OV-3 ovarian): > 65.5 µM
- TGI (SN12C renal): > 100 µM
- TGI (SNB-19 CNS): > 100 µM
- TGI (SNB-75 CNS): > 28.7 µM
- TGI (SR leukemia): > 100 µM
- TGI (SW-620 colon): > 100 µM
- TGI (T-47D breast): > 100 µM
- TGI (TK-10 renal): > 31.5 µM
- TGI (U251 CNS): > 100 µM
- TGI (UACC-62 melanoma): 7.45 µM
- TGI (UO-31 renal): 3.08 µM
